Where a name gives a salt, the structure may show the parent alone.

Usually IC50 stands for the concentration that gives 50% inhibition.

The target in one assay is T1, His6-JNK2 (Homo sapiens, UniProt P45984).
T1 construct: His6 (N)
T1 sequence (P45984 whole entry): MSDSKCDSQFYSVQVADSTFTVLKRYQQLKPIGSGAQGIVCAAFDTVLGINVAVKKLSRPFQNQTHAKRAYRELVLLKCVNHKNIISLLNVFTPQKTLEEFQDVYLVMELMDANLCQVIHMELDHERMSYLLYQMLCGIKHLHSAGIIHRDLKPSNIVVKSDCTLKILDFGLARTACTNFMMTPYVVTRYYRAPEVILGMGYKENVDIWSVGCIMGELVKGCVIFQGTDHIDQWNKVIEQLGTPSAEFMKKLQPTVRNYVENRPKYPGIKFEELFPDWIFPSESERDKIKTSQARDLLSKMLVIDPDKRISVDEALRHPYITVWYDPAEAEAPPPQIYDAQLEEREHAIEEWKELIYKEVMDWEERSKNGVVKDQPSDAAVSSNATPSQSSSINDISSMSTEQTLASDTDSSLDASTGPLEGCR
The assay is described as follows: JNK2 Assay (c-Jun phosphorylation, 32P-ATP filter plate). In kind it is biochemical. The settings on record: IC50 value in the JNK2 Assay, c-Jun phosphorylation reduced to 50% of control; GST-c-Jun(1-79), 11 μM ATP. As for the experimental part:
To 10 μL of the test compound in 20%/DMSO/80% dilutien buffer consisting of 20 mM HELPS (pH 7.6), 0.1 mM; EDTA, 2.5 mM magnesium chloride, 0.004% Triton×100, 2 μg/mL leupeptin, 20 mM β-glycerolphosphate, 0.1 mM sodium vanadate, and 2 mM DTT in water is added 30 μL of 50 ng His6-JNK2 in the same dilution buffer. The mixture is preincubated for 30 minutes at room temperature. Sixty microliter of 10 μg GST-c-Jun(1-79) in assay buffer consisting of 20 mM HEPES (pH 7.6), 50 mM sodium chloride, 0.1 mM EDTA, 24 mM magnesium chloride, 1 mM DTT, 25 mM PNPP, 0.05% Triton×100, 11 μM ATP, and 0.5 μCi γ-^32P ATP in water is added and the reaction is allowed to proceed for 1 hour at room temperature. The c-Jun phosphorylation is terminated by addition of 150 μL of 12.5% trichloroacetic acid. After 30 minutes, the precipitate is harvested onto a filter plate, diluted with 50 μL of the scintillation fluid and quantified by a counter. The IC50 values are calculated as the concentration of the test compound at which the c-Jun phosphorylation is reduced to 50% of the control value.
`O=C(c1ccc(Nc2nccc(-c3ccc(Cl)cc3)n2)cc1)N1CCC2(CC1)OCCO2` [Compound 17-139] returned an IC50 of at most 10 µM.

Staying with this assay, now noted: c-Jun phosphorylation reduced to 50% of control; GST-c-Jun(1-79), 11 μM ATP; read-out: IC50 value in the JNK2 Assay.
`CC(=O)N1CCN(C(=O)c2ccc(Nc3nccc(-c4ccc(Cl)cc4)n3)cc2)CC1` [Compound 17-129]: the IC50 was at most 1 µM. Take `CCN(CC)C(=O)C1CCCN(C(=O)c2ccc(Nc3nccc(-c4ccc(Cl)cc4)n3)cc2)C1` (centres unmarked) [Compound 17-130]: the IC50 is at most 10 µM. In the case of `O=CN1CCN(C(=O)c2ccc(Nc3nccc(-c4ccc(Cl)cc4)n3)cc2)CC1` [Compound 17-131], the IC50 was at most 10 µM. In the case of `CCCNC(=O)c1ccc(Nc2nccc(-c3ccc(Cl)cc3)n2)cc1` [Compound 17-132], the IC50 was at most 10 µM. `O=C(c1ccc(Nc2nccc(-c3ccc(Cl)cc3)n2)cc1)N1CCOCC1` [Compound 17-133]: the IC50 was at most 10 µM.

In the case of `CC(=O)c1ccc(N2CCN(C(=O)c3ccc(Nc4nccc(-c5ccc(Cl)cc5)n4)cc3)CC2)cc1` [Compound 17-134], the IC50 was at most 10 µM. In the case of `COc1ccccc1N1CCN(C(=O)c2ccc(Nc3nccc(-c4ccc(Cl)cc4)n3)cc2)CC1` [Compound 17-135], the IC50 was at most 10 µM.

With `O=C(c1ccc(Nc2nccc(-c3ccc(Cl)cc3)n2)cc1)N1CCN(c2ccc([N+](=O)[O-])cc2)CC1` [Compound 17-136], the half-maximal inhibitory concentration (IC50) was at most 10 µM. Consider `CCOC(=O)N1CCN(C(=O)c2ccc(Nc3nccc(-c4ccc(Cl)cc4)n3)cc2)CC1` [Compound 17-137], for which the IC50 is at most 1 µM. On the same count and under the same terms, as for `O=C(c1ccc(Nc2nccc(-c3ccc(Cl)cc3)n2)cc1)N1CCC(c2ccccc2)CC1` [Compound 17-140], the figure is at most 10 µM; as for `CC(C)NC(=O)CN1CCN(C(=O)c2ccc(Nc3nccc(-c4ccc(Cl)cc4)n3)cc2)CC1` [Compound 17-141], at most 1 µM. The same measure, in the same setting: as for `O=C(NCCN1CCOCC1)c1ccc(Nc2nccc(-c3ccc(Cl)cc3)n2)cc1` [Compound 17-142], the figure is at most 10 µM; as for `O=C(c1ccc(Nc2nccc(-c3ccc(Cl)cc3)n2)cc1)N1CCN(c2cccc(C(F)(F)F)c2)CC1` [Compound 17-143], at most 10 µM. The same measure, in the same setting: as for `O=C(c1ccc(Nc2nccc(-c3ccc(Cl)cc3)n2)cc1)N1CC=CCC1` [Compound 17-144], the figure is at most 10 µM; as for `CCN(Cc1ccncc1)C(=O)c1ccc(Nc2nccc(-c3ccc(Cl)cc3)n2)cc1` [Compound 17-147], at most 1 µM; as for `O=C(c1ccc(Nc2nccc(-c3ccc(Cl)cc3)n2)cc1)N1CCN(c2ccccn2)CC1` [Compound 17-148], at most 10 µM. As for `O=C(c1ccc(Nc2nccc(-c3ccc(Cl)cc3)n2)cc1)N1CCN(c2ccc(F)cc2)CC1` [Compound 17-149], the IC50 is at most 10 µM. With `CN(C)CCN(Cc1ccccc1)C(=O)c1ccc(Nc2nccc(-c3ccc(Cl)cc3)n2)cc1` [Compound 17-150], the concentration for half-maximal inhibition (IC50) is at most 10 µM. With `CN(CCc1ccccn1)C(=O)c1ccc(Nc2nccc(-c3ccc(Cl)cc3)n2)cc1` [Compound 17-151], the concentration for half-maximal inhibition (IC50) is at most 10 µM. Regarding `CN1CCCC1CCNC(=O)c1ccc(Nc2nccc(-c3ccc(Cl)cc3)n2)cc1` (centres unmarked) [Compound 17-152], the IC50 was at most 10 µM. With `CCN(CC)CCCNC(=O)c1ccc(Nc2nccc(-c3ccc(Cl)cc3)n2)cc1` [Compound 17-153], the IC50 is at most 10 µM.

Take `CN(C)CCCNC(=O)c1ccc(Nc2nccc(-c3ccc(Cl)cc3)n2)cc1` [Compound 17-154]: the IC50 was at most 1 µM.

Regarding `CN(Cc1ccccc1)C(=O)c1ccc(Nc2nccc(-c3ccc(Cl)cc3)n2)cc1` [Compound 17-157], the IC50 is at most 10 µM. In the case of `O=C(c1ccc(Nc2nccc(-c3ccc(Cl)cc3)n2)cc1)N1CCN(c2ccccc2)CC1` [Compound 17-158], the IC50 was at most 10 µM. As to `O=C(c1ccc(Nc2nccc(-c3ccc(Cl)cc3)n2)cc1)N1CCN(C(=O)c2ccco2)CC1` [Compound 17-159], the IC50 is at most 10 µM. Consider `CC(=O)N1CCCN(C(=O)c2ccc(Nc3nccc(-c4ccc(Cl)cc4)n3)cc2)CC1` [Compound 17-160], for which the IC50 is at most 10 µM. Take `O=C(c1ccc(Nc2nccc(-c3ccc(Cl)cc3)n2)cc1)N1CCN(Cc2cccnc2)CC1` [Compound 17-161]: the IC50 was at most 10 µM. Turning to `CCN(C(C)=O)C1CCN(C(=O)c2ccc(Nc3nccc(-c4ccc(Cl)cc4)n3)cc2)C1` (centres unmarked) [Compound 17-162], the IC50 was at most 10 µM. For the compound `CC(=O)N(C)C1CCN(C(=O)c2ccc(Nc3nccc(-c4ccc(Cl)cc4)n3)cc2)C1` (centres unmarked) [Compound 17-163], the 50% inhibitory concentration (IC50) was at most 10 µM.

Consider `CN1CCN(CCCNC(=O)c2ccc(Nc3nccc(-c4ccc(Cl)cc4)n3)cc2)CC1` [Compound 17-164], for which the IC50 was at most 10 µM.

In the case of `O=C(c1ccc(Nc2nccc(-c3ccc(Cl)cc3)n2)cc1)N1CCC(N2CCCCC2)CC1` [Compound 17-169], the IC50 was at most 1 µM. In the case of `O=C(c1ccc(Nc2nccc(-c3ccc(Cl)cc3)n2)cc1)N1CCC(N2CCCC2)CC1` [Compound 17-171], the IC50 was at most 1 µM.

For the compound `C[C@@H]1CN(C(=O)c2ccc(Nc3nccc(-c4ccc(Cl)cc4)n3)cc2)C[C@H](C)N1` [Compound 17-190], the IC50 is at most 1 µM.

`O=C(c1ccc(Nc2nccc(-c3ccc(Cl)cc3)n2)cc1)N1CCN(CCO)CC1` [Compound 17-215]: the IC50 is at most 10 µM. In the case of `O=C(c1ccc(Nc2nccc(-c3ccc(Cl)cc3)n2)cc1)N1CCNCC1` [Compound 18, 4-{[4-(4-Chlorophenyl)pyrimidin-2-yl]amino}benzoic acid piperazine amide hydrochloride], the IC50 was at most 1 µM. For the compound `CC(=O)NC1CCN(C(=O)c2ccc(Nc3nccc(-c4ccc(Cl)cc4)n3)cc2)CC1` [Compound 20-1], the IC50 is at most 1 µM. Regarding `Cc1noc(C)c1C(=O)NC1CCN(C(=O)c2ccc(Nc3nccc(-c4ccc(Cl)cc4)n3)cc2)CC1` [Compound 20-2], the IC50 was at most 10 µM. For `O=C(NC1CCN(C(=O)c2ccc(Nc3nccc(-c4ccc(Cl)cc4)n3)cc2)CC1)c1cccs1` [Compound 20-3], the IC50 was at most 1 µM. On the same count and under the same terms, as for `O=C(NC1CCN(C(=O)c2ccc(Nc3nccc(-c4ccc(Cl)cc4)n3)cc2)CC1)N1CCOCC1` [Compound 20-4], the figure is at most 1 µM; as for `CN(C)C(=O)NC1CCN(C(=O)c2ccc(Nc3nccc(-c4ccc(Cl)cc4)n3)cc2)CC1` [Compound 20-5], at most 10 µM; as for `COCC(=O)NC1CCN(C(=O)c2ccc(Nc3nccc(-c4ccc(Cl)cc4)n3)cc2)CC1` [Compound 20-6], at most 10 µM. The same measure, in the same setting: as for `CN(C)CCNC1CCN(C(=O)c2ccc(Nc3nccc(-c4ccc(Cl)cc4)n3)cc2)CC1` [Compound 22-10], the figure is at most 1 µM; as for `O=C(c1ccc(Nc2nccc(-c3ccc(Cl)cc3)n2)cc1)N1CCC(NCCO)CC1` [Compound 22-11], at most 1 µM.

For the origin of these results see patent US7429599B2, “Methods for treating or preventing an inflammatory or metabolic condition or inhibiting JNK” (Signal Pharmaceuticals, LLC, priority 2000, dated 2008).
